Legend:
[1] = test system: PGE2 generation in rat mesangial cells; assay: Suppression of IL-1β/forskolin-stimulated PGE2 generation in rat renal mesangial cells; type: cell-based; conditions: for inhibition at 3 µM / IC50: Rattus norvegicus, Mesangial cell; for IC50: IL-1β plus forskolin, read-out: EC50 (μM), inhibition of PGE2 generation
Description: Rat renal mesangial cells (clone MZ B1), isolated and characterized as previously described, were cultivated in RPMI 1640 medium supplemented with 10% fetal bovine serum; 10 mM 4-(2-hydroxyethyl)-1-piperazineethanesulfonic acid (HEPES), pH 7.4; 6 µg/mL of bovine insulin; 5 µg/mL of transferrin; 5 nM sodium selenite; 100 units/mL of penicillin; and 100 µg/mL of streptomycin. The cells were incubated for 4 h in Dulbecco’s modified Eagle’s medium (DMEM) containing 10 mM HEPES, pH 7.4, and 0.1 mg/mL of fatty acid-free bovine serum albumin (BSA), prior to stimulation.
Confluent mesangial cells in 24-well plates were pretreated for 20 min with varying concentrations of inhibitors and then stimulated for 24 h in a total volume of 400 µL of DMEM containing 0.1 mg/mL of BSA, in the absence or presence of 1 nM interleukin 1β (IL-1) plus 5 μM forskolin (Fk). Thereafter, the supernatants were collected and centrifuged for 5 min at 1000× g. The PGE2 in the supernatant was quantified using an enzyme-linked immunoassay (Enzo Life Sciences, Lörrach, Germany) following the manufacturer’s recommendations.
Statistical analysis of the data was performed using one-way analysis of variance (ANOVA) followed by a Bonferroni’s post hoc test for multiple comparisons (GraphPad Prism 8.4.3., San Diego, CA, USA). The half maximal effective concentrations (EC50) of the inhibitors were calculated using the same software.

[2] = test system: rat-paw carrageenan-induced edema; assay: Rat-paw carrageenan-induced-edema assay; type: in vivo; conditions: for In vivo anti-inflammatory activity compared with indomethacin: 0.01 mmol/kg, same dose as indomethacin
Description: The anti-inflammatory activities of selected aminobenzothiazole derivatives were determined by employing the rat-paw carrageenan-induced-edema assay, as previously described. Only male animals (180–220 g body weight) were used. Each group was composed of five animals. The animals were divided into three five-membered groups, and all the tested compounds were suspended in water (0.01 mmol/mL/kg body weight), with a few drops of Tween 80, and ground in a mortar before being administered intraperitoneally simultaneously. After treatment with the tested compounds in group 1, a 2nd group was used as a positive control (indomethacin at 0.01 mmol/mL/kg body weight, i.p.), and another group (3rd) served as the control in which water was administered (negative control). The compounds were injected intraperitoneally at the same time as carrageenan was given by intradermal injection. The rats were euthanized 3.5 h post-injection. The weight of the uninjected with carrageenan paw was subtracted from the weight of the injected paw for each animal. The change in paw weight for the treated animals was compared to that for the control animals and expressed as the percent inhibition of edema. The values of CPE % are the means from three different experiments with standard errors of the mean less than 10%. The statistical significance of the results was established with Student’s t-test, for * p < 0.01 and ** p < 0.05. All the animal experiments performed in the manuscript were conducted in compliance with institutional guidelines. Our studies were in accordance with recognized guidelines on animal experimentation (guidelines for the care and use of laboratory animals published by the Greek Government 160/1991, based on EU regulations 86/609). The rats were kept in the Centre of the School of Veterinary Medicine (EL54 BIO42), Aristotle University of Thessaloniki, which is registered by the official state veterinary authorities (presidential degree 56/2013, in harmonization with the European Directive 2010/63/EEC). The experimental protocols were approved by the Animal Ethics Committee of the Prefecture of Central Macedonia (no. 270079/2500).

[3] = 24 h, 3 μM, 1 nM IL-1β plus 5 μM forskolin

**Q.** What does the source list for `O=C(CCCc1ccc2ccccc2c1)Nc1nc2ccccc2s1` [Compound 5a, N-(Benzo[d]Thiazol-2-yl)-4-(Naphthalen-2-yl)Butanamide]?
**A.** melting point: 53 to 55 °C; inhibition at 3 µM [1, 3]: 50%

**Q.** For `O=C(CCc1ccc2ccccc2c1)Nc1nc2ccccc2s1` [Compound 5b, N-(Benzo[d]Thiazol-2-yl)-3-(Naphthalen-2-yl)Propanamide], which “In vivo anti-inflammatory activity compared with indomethacin” value [2] is on record?
**A.** higher than that of indomethacin

**Q.** What about the “In vivo anti-inflammatory activity compared with indomethacin” value ([2]; listed as GK510) of the same molecule?
**A.** greater than that of indomethacin

**Q.** What about the melting point of the same molecule?
**A.** 46 to 48 °C

**Q.** And the inhibition at 3 µM [1, 3]?
**A.** > 80%

**Q.** What about the IC50 ([1]; 0.1 to 3 µM, 24 h) of the same molecule?
**A.** 0.173 µM

**Q.** With `O=C(CCc1ccc2ccccc2c1)Nc1nc2ccccc2o1` [Compound 5c, N-(Benzo[d]Oxazol-2-yl)-3-(Naphthalen-2-yl)Propanamide] as the molecule, how does the melting point read?
**A.** 49 to 51 °C

**Q.** What about the inhibition at 3 µM [1, 3] of the same molecule?
**A.** 49%

**Q.** For `O=C(CCCc1ccc2ccccc2c1)Nc1nc2ccccc2o1` [Compound 5d, N-(Benzo[d]Oxazol-2-yl)-4-(Naphthalen-2-yl)Butanamide], which melting point is on record?
**A.** 52 to 55 °C

**Q.** What about the inhibition at 3 µM [1, 3] of the same molecule?
**A.** 73%

**Q.** Which melting point does the source give for `O=C(CCc1ccc2ccccc2c1)Nc1nc2ccccc2[nH]1` [Compound 5e, N-(1H-Benzo[d]Imidazol-2-yl)-3-(Naphthalen-2-yl)Propanamide] here?
**A.** 47 to 49 °C

**Q.** And the inhibition at 3 µM [1, 3]?
**A.** 29%

**Q.** What does the source list for `O=C(CCCc1ccc2ccccc2c1)Nc1nc2ccccc2[nH]1` [Compound 5f, N-(1H-Benzo[d]Imidazol-2-yl)-4-(Naphthalen-2-yl)Butanamide]?
**A.** melting point: 56 to 58 °C; inhibition at 3 µM [1, 3]: 66%

**Q.** What does the source list for `O=C(COc1ccc2ccccc2c1)Nc1nc2ccccc2s1` [Compound 7, N-(Benzo[d]Thiazol-2-yl)-2-(Naphthalen-2-yloxy)Acetamide]?
**A.** melting point: 153 to 155 °C; inhibition at 3 µM [1, 3]: 41%

**Q.** Which melting point does the source give for `O=C(/C=C/c1ccc2ccccc2c1)Nc1nc2ccccc2s1` [Compound 9a, (E)-N-(Benzo[d]Thiazol-2-yl)-3-(Naphthalen-2-yl)Acrylamide] here?
**A.** 228 to 230 °C

**Q.** And the inhibition at 3 µM [1, 3]?
**A.** 28%

**Q.** For `COc1ccc(/C=C/C(=O)Nc2nc3ccccc3s2)cc1` [Compound 9b, (E)-N-(Benzo[d]Thiazol-2-yl)-3-(4-Methoxyphenyl)Acrylamide], which melting point is on record?
**A.** 252 to 254 °C

**Q.** And the inhibition at 3 µM [1, 3]?
**A.** 25%

**Q.** What does the source list for `COc1ccc(CCC(=O)Nc2nc3ccccc3s2)cc1` [Compound 11, N-(Benzo[d]Thiazol-2-yl)-3-(4-Methoxyphenyl)Propanamide]?
**A.** melting point: 172 to 174 °C; inhibition at 3 µM [1, 3]: > 80%; IC50 ([1]; 0.1 to 3 µM, 24 h): 0.916 µM

**Q.** For `O=C(NCCCc1ccc2ccccc2c1)c1nc2ccccc2s1` [Compound 14, N-(3-(Naphthalen-2-yl)Propyl)Benzo[d]Thiazole-2-Carboxamide], which melting point is on record?
**A.** 48 to 50 °C

**Q.** What about the inhibition at 3 µM [1, 3] of the same molecule?
**A.** 64%

**Q.** With `COc1ccc(COC(=O)Nc2nc3ccccc3s2)cc1` [Compound 16a, 4-Methoxybenzyl Benzo[d]Thiazol-2-ylcarbamate] as the molecule, how does the melting point read?
**A.** 141 to 143 °C

**Q.** And the inhibition at 3 µM [1, 3]?
**A.** 15%

**Q.** For `O=C(Nc1nc2ccccc2s1)OCc1ccc2ccccc2c1` [Compound 16b, Naphthalen-2-ylmethyl Benzo[d]Thiazol-2-ylcarbamate], which melting point is on record?
**A.** 209 to 211 °C

**Q.** And the inhibition at 3 µM [1, 3]?
**A.** 39%

**Q.** With `COC(CCc1ccc2ccccc2c1)Nc1nc2ccccc2s1` (centres unmarked) [Compound 18a, N-(1-Methoxy-3-(Naphthalen-2-yl)Propyl)Benzo[d]Thiazol-2-Amine] as the molecule, how does the inhibition at 3 µM [1, 3] read?
**A.** 46%

**Q.** For `COC(CCc1ccccc1)Nc1nc2ccccc2s1` (centres unmarked) [Compound 18b, N-(1-Methoxy-3-Phenylpropyl)Benzo[d]Thiazol-2-Amine], which inhibition at 3 µM [1, 3] is on record?
**A.** 0%

**Q.** For `COc1ccc(CCC(Nc2nc3ccccc3s2)OC)cc1` (centres unmarked) [Compound 18c, N-(1-Methoxy-3-(4-Methoxyphenyl)Propyl)Benzo[d]Thiazol-2-Amine], which inhibition at 3 µM [1, 3] is on record?
**A.** 0%

**Q.** Which melting point does the source give for `COC(CCc1ccc2ccccc2c1)Nc1nc2ccc(OC(F)(F)F)cc2s1` (centres unmarked) [Compound 18g, N-(1-Methoxy-3-(Naphthalen-2-yl)Propyl)-6-(Trifluoromethoxy)Benzo[d]Thiazol-2-Amine] here?
**A.** 78 to 80 °C

**Q.** With `COC(CCc1cccc2ccccc12)Nc1nc2ccc(OC(F)(F)F)cc2s1` (centres unmarked) [Compound 18h, N-(1-Methoxy-3-(Naphthalen-1-yl)Propyl)-6-(Trifluoromethoxy)Benzo[d]Thiazol-2-Amine] as the molecule, how does the melting point read?
**A.** 100 to 102 °C

**Q.** With `c1ccc(CCCNc2nc3ccccc3s2)cc1` [Compound 19b, N-(3-Phenylpropyl)Benzo[d]Thiazol-2-Amine] as the molecule, how does the melting point read?
**A.** 99 to 102 °C

**Q.** What about the inhibition at 3 µM [1, 3] of the same molecule?
**A.** > 80%

**Q.** And the IC50 ([1]; 0.1 to 3 µM, 24 h)?
**A.** 0.177 µM

**Q.** Which melting point does the source give for `COc1ccc(CCCNc2nc3ccccc3s2)cc1` [Compound 19c, N-(3-(4-Methoxyphenyl)Propyl)Benzo[d]Thiazol-2-Amine] here?
**A.** 104 to 106 °C

**Q.** What about the inhibition at 3 µM [1, 3] of the same molecule?
**A.** 62%

**Q.** Which melting point does the source give for `c1ccc2c(CCCNc3nc4ccccc4s3)cccc2c1` [Compound 19d, N-(3-(Naphthalen-1-yl)Propyl)Benzo[d]Thiazol-2-Amine] here?
**A.** 134 to 137 °C

**Q.** And the inhibition at 3 µM [1, 3]?
**A.** > 80%

**Q.** What about the IC50 ([1]; 0.1 to 3 µM, 24 h) of the same molecule?
**A.** 0.399 µM

**Q.** What does the source list for `c1ccc2c(CCCNc3nccs3)cccc2c1` [Compound 19e, N-(3-(Naphthalen-1-yl)Propyl)Thiazol-2-Amine]?
**A.** melting point: 94 to 97 °C; Concentration dependence of effect on PGE2 generation ([1]; 0.1 to 3 µM, low concentrations enhanced PGE2, 1 µM and 3 µM reduced it): biphasic effect; inhibition at 3 µM [1, 3]: > 80%

**Q.** What does the source list for `c1ccc(CCCNc2nccs2)cc1` [Compound 19f, N-(3-Phenylpropyl)Thiazol-2-Amine]?
**A.** melting point: 83 to 84 °C; inhibition at 3 µM [1, 3]: 20%

**Q.** Which melting point does the source give for `FC(F)(F)Oc1ccc2nc(NCCCc3ccc4ccccc4c3)sc2c1` [Compound 19g, N-(3-(Naphthalen-2-yl)Propyl)-6-(Trifluoromethoxy)Benzo[d]Thiazol-2-Amine] here?
**A.** 150 to 152 °C

**Q.** And the “% Inhibition (at 3 μM) of PGE2 generation” value ([1]; 3 μM, 1 nM IL-1β plus 5 μM forskolin, 24 h, listed as 19)?
**A.** inactive

**Q.** What about the inhibition at 3 µM [1, 3] of the same molecule?
**A.** 0%

**Q.** With `FC(F)(F)Oc1ccc2nc(NCCCc3cccc4ccccc34)sc2c1` [Compound 19h, N-(3-(Naphthalen-1-yl)Propyl)-6-(Trifluoromethoxy)Benzo[d]Thiazol-2-Amine] as the molecule, how does the melting point read?
**A.** 115 to 116 °C

**Q.** What about the inhibition at 3 µM [1, 3] of the same molecule?
**A.** 0%

**Q.** With `c1ccc2cc(CCCNc3nc4ccccc4o3)ccc2c1` [Compound 23a, N-(3-(Naphthalen-2-yl)Propyl)Benzo[d]Oxazol-2-Amine] as the molecule, how does the melting point read?
**A.** 128 to 130 °C

**Q.** And the inhibition at 3 µM [1, 3]?
**A.** > 80%

**Q.** And the IC50 ([1]; 0.1 to 3 µM, 24 h)?
**A.** 0.336 µM

**Q.** For `COc1ccc(CCCNc2nc3ccccc3o2)cc1` [Compound 23b, N-(3-(4-Methoxyphenyl)Propyl)Benzo[d]Oxazol-2-Amine], which melting point is on record?
**A.** 85 to 87 °C

**Q.** And the inhibition at 3 µM [1, 3]?
**A.** 79%

**Q.** For `c1ccc2cc(OCCNc3nc4ccccc4o3)ccc2c1` [Compound 23c, N-(2-(Naphthalen-2-yloxy)Ethyl)Benzo[d]Oxazol-2-Amine], which melting point is on record?
**A.** 152 to 153 °C

**Q.** What about the inhibition at 3 µM [1, 3] of the same molecule?
**A.** > 80%

**Q.** And the IC50 ([1]; 0.1 to 3 µM, 24 h)?
**A.** 0.894 µM

**Q.** Which melting point does the source give for `c1ccc2c(OCCNc3nc4ccccc4o3)cccc2c1` [Compound 23d, N-(2-(Naphthalen-1-yloxy)Ethyl)Benzo[d]Oxazol-2-Amine] here?
**A.** 164 to 166 °C

**Q.** And the inhibition at 3 µM [1, 3]?
**A.** 45%

**Q.** With `c1ccc2cc(OCCNc3nc4ccccc4s3)ccc2c1` [Compound 25a, N-(2-(Naphthalen-2-yloxy)Ethyl)Benzo[d]Thiazol-2-Amine] as the molecule, how does the melting point read?
**A.** 170 to 172 °C

**Q.** What about the inhibition at 3 µM [1, 3] of the same molecule?
**A.** 63%

**Q.** What does the source list for `c1ccc2c(OCCNc3nc4ccccc4s3)cccc2c1` [Compound 25b, N-(2-(Naphthalen-1-yloxy)Ethyl)Benzo[d]Thiazol-2-Amine]?
**A.** melting point: 170 to 173 °C; inhibition at 3 µM [1, 3]: 57%

**Q.** For `COc1ccc2c(c1)c(CC(=O)O)c(C)n2C(=O)c1ccc(Cl)cc1` [Indomethacin, reference compound], which “% Reduction of Rat-Paw Edema” value ([2]; 0.01 mmol/kg i.p., given with carrageenan, 3.5 h post-injection) is on record?
**A.** 37.3%

Source: PMC8961538, “N-Acylated and N-Alkylated 2-Aminobenzothiazoles Are Novel Agents That Suppress the Generation of Prostaglandin E2” (Biomolecules, 2022)
